# Assays:
# cocklebur = test: Test B pre/postemergence cocklebur; type: in vivo, Xanthium strumarium
# Method in brief: (§1)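 Herbicidal effect was estimated by eye on a ten-point control scale after plants spent twelve to sixteen days in a greenhouse following soil or foliar treatment. Foliar sprays targeted plants at one to four leaves; all doses were formulated in a non-phytotoxic solvent with surfactant.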
# rice = test: Test B flood test rice; type: in vivo, Oryza sativa
# Method in brief: (§2)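 Plants were grown to the 2-leaf stage before treatment with test chemical, then held in a greenhouse for twelve to sixteen days. Injury was visually rated against untreated controls on a 0–10 scale, where 0 is no effect and 10 is complete control.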
# velvetleaf = test: Test B pre/postemergence velvetleaf; type: in vivo, Abutilon theophrasti
# Method in brief: as §1
# pigweed = test: Test B pre/postemergence pigweed; type: in vivo, Amaranthus retroflexus
# Method in brief: as §1
# morningglory = test: Test B pre/postemergence morningglory; type: in vivo, Ipomoea hederacea
# Method in brief: as §1
# surinam grass = test: Test B pre/postemergence surinam grass; type: in vivo, Brachiaria decumbens
# Method in brief: as §1
# corn = test: Test B pre/postemergence corn; type: in vivo, Zea mays
# Method in brief: as §1
# rape = test: Test B pre/postemergence rape; type: in vivo, Brassica napus
# Method in brief: as §1
# blackgrass = test: Test B pre/postemergence blackgrass; type: in vivo, Alopecurus myosuroides
# Method in brief: as §1
# smallflower flatsedge = test: Test B flood test smallflower flatsedge; type: in vivo, Cyperus difformis
# Method in brief: as §2
# wild oat = test: Test B pre/postemergence wild oat; type: in vivo, Avena fatua
# Method in brief: as §1
# bamyardgrass = test: Test B flood test barnyardgrass; type: in vivo, Echinochloa crus-galli
# Method in brief: as §2
# sugar beet = test: Test B pre/postemergence sugar beet; type: in vivo, Beta vulgaris
# Method in brief: as §1
# giant foxtail = test: Test B pre/postemergence giant foxtail; type: in vivo, Setaria faberii
# Method in brief: as §1
# crabgrass = test: Test B pre/postemergence crabgrass; type: in vivo, Digitaria sanguinalis
# Method in brief: as §1
# bedstraw = test: Test B pre/postemergence bedstraw; type: in vivo, Galium aparine
# Method in brief: as §1
# [1] = Postemergence, Rate 31 g/ha, visual rating, scale 0 to 10 (0 no effect, 10 complete control)
# [2] = Preemergence, Rate 31 g/ha, visual rating, scale 0 to 10 (0 no effect, 10 complete control)
# [3] = Preemergence, Rate 62 g/ha, scale of 0 to 10 where 0 is no effect and 10 is complete control
# [4] = Preemergence, Rate 250 g/ha, scale of 0 to 10 where 0 is no effect and 10 is complete control
# [5] = Rate 62 g/ha, Postemergence, scale 0 to 10, 0 no effect, 10 complete control
# [6] = Rate 125 g/ha, Postemergence, scale of 0 to 10 where 0 is no effect and 10 is complete control
# [7] = Rate 250 g/ha, Postemergence, scale of 0 to 10 where 0 is no effect and 10 is complete control
# [8] = Rate 31 g/ha, Pre-emergence section (flood test species), scale 0 to 10
# [9] = Rate 62 g/ha, headed Pre-emergence (flood test species), scale 0 to 10 (0 no effect, 10 complete control)
# [10] = Rate 125 g/ha, Pre-emergence, flood test species, scale 0 to 10 where 0 is no effect and 10 is complete control
# [11] = Rate 250 g/ha, Pre-emergence, flood-test species, scale 0 to 10, 0 is no effect, 10 is complete control
structure (smiles),measurement,setting,value
COCC(C)N(C(=O)n1oc(=O)n(-c2ccccc2C)c1=O)c1ccc(F)cc1 (centres unmarked) [Compound 324],Cocklebur plant response rating,cocklebur; [1],0
same,Cocklebur plant response rating,cocklebur; [2],0
same,Cocklebur plant response rating,cocklebur; [3],0
same,Cocklebur plant response rating (0 to 10 scale),"cocklebur; Preemergence, Rate 125 g/ha",0
same,Cocklebur plant response rating,cocklebur; [4],0
same,Cocklebur plant response rating,cocklebur; [5],0
same,Cocklebur plant response rating,cocklebur; [6],0
same,"Plant response rating, Cocklebur",cocklebur; [7],2
same,Rice plant response rating,rice; [8],0
same,Rice plant response rating,rice; [9],0
same,Rice plant response rating,rice; [10],0
same,Rice plant response rating,rice; [11],0
same,Velvetleaf plant response rating,velvetleaf; [1],0
same,Velvetleaf plant response rating,velvetleaf; [3],0
same,Velvetleaf plant response rating (0 to 10 scale),"velvetleaf; Preemergence, Rate 125 g/ha",0
same,Velvetleaf plant response rating,velvetleaf; [4],0
same,Velvetleaf plant response rating,velvetleaf; [5],0
same,Velvetleaf plant response rating,velvetleaf; [6],0
same,"Plant response rating, Velvetleaf",velvetleaf; [7],0
same,Redroot pigweed plant response rating,pigweed; [1],0
same,Redroot pigweed plant response rating,pigweed; [3],0
same,Redroot pigweed plant response rating (0 to 10 scale),"pigweed; Preemergence, Rate 125 g/ha",0
same,Redroot pigweed plant response rating,pigweed; [4],0
same,Redroot pigweed plant response rating,pigweed; [5],0
same,Redroot pigweed plant response rating,pigweed; [6],0
same,"Plant response rating, Redroot pigweed",pigweed; [7],0
same,Morningglory plant response rating,morningglory; [1],0
same,Morningglory plant response rating,morningglory; [3],0
same,Morningglory plant response rating (0 to 10 scale),"morningglory; Preemergence, Rate 125 g/ha",0
same,Morningglory plant response rating,morningglory; [4],0
same,Morningglory plant response rating,morningglory; [5],0
same,Morningglory plant response rating,morningglory; [6],0
same,"Plant response rating, Morningglory",morningglory; [7],0
same,B. signalgrass plant response rating,surinam grass; [1],0
same,B. signalgrass plant response rating,surinam grass; [2],0
same,B. signalgrass plant response rating,surinam grass; [3],0
same,"B. signalgrass plant response rating (0 to 10 scale, 0 is no effect, 10 is complete control)","surinam grass; Preemergence, Rate 125 g/ha",0
same,B. signalgrass plant response rating,surinam grass; [4],0
same,B. signalgrass plant response rating,surinam grass; [5],0
same,B. signalgrass plant response rating,surinam grass; [6],0
same,"Plant response rating, B. signalgrass",surinam grass; [7],0
same,Corn plant response rating,corn; [1],0
same,Corn plant response rating,corn; [2],0
same,Corn plant response rating,corn; [3],0
same,Corn plant response rating (0 to 10 scale),"corn; Preemergence, Rate 125 g/ha",0
same,Corn plant response rating,corn; [4],0
same,Corn plant response rating,corn; [5],0
same,Corn plant response rating,corn; [6],0
same,"Plant response rating, Corn",corn; [7],0
same,Rape plant response rating,rape; [1],0
same,Rape plant response rating,rape; [3],0
same,Rape plant response rating (0 to 10 scale),"rape; Preemergence, Rate 125 g/ha",0
same,Rape plant response rating,rape; [4],0
same,Rape plant response rating,rape; [5],0
same,Rape plant response rating,rape; [6],0
same,"Plant response rating, Rape",rape; [7],0
same,Blackgrass plant response rating,blackgrass; [1],0
same,Blackgrass plant response rating,blackgrass; [2],0
same,Blackgrass plant response rating,blackgrass; [3],0
same,Blackgrass plant response rating (0 to 10 scale),"blackgrass; Preemergence, Rate 125 g/ha",0
same,Blackgrass plant response rating,blackgrass; [4],0
same,Blackgrass plant response rating,blackgrass; [5],0
same,Blackgrass plant response rating,blackgrass; [6],0
same,"Plant response rating, Blackgrass",blackgrass; [7],0
same,S. Flatsedge plant response rating,smallflower flatsedge; [8],0
same,S. Flatsedge plant response rating,smallflower flatsedge; [9],0
same,S. Flatsedge plant response rating,smallflower flatsedge; [10],0
same,S. Flatsedge plant response rating,smallflower flatsedge; [11],0
same,Wild oats plant response rating,wild oat; [1],0
same,Wild oats plant response rating,wild oat; [3],0
same,Wild oats plant response rating (0 to 10 scale),"wild oat; Preemergence, Rate 125 g/ha",0
same,Wild oats plant response rating,wild oat; [4],0
same,Wild oats plant response rating,wild oat; [5],0
same,Wild oats plant response rating,wild oat; [6],0
same,"Plant response rating, Wild oats",wild oat; [7],0
same,Barnyardgrass plant response rating,bamyardgrass; [8],0
same,Barnyardgrass plant response rating,bamyardgrass; [9],0
same,Barnyardgrass plant response rating,bamyardgrass; [10],0
same,Barnyardgrass plant response rating,bamyardgrass; [11],0
same,Sugarbeets plant response rating,sugar beet; [1],0
same,Sugarbeets plant response rating,sugar beet; [3],0
same,Sugarbeets plant response rating (0 to 10 scale),"sugar beet; Preemergence, Rate 125 g/ha",0
same,Sugarbeets plant response rating,sugar beet; [4],0
same,Sugarbeets plant response rating,sugar beet; [5],0
same,Sugarbeets plant response rating,sugar beet; [6],0
same,"Plant response rating, Sugarbeets",sugar beet; [7],0
same,Giant foxtail plant response rating,giant foxtail; [1],0
same,Giant foxtail plant response rating,giant foxtail; [2],0
same,Giant foxtail plant response rating,giant foxtail; [3],0
same,Giant foxtail plant response rating (0 to 10 scale),"giant foxtail; Preemergence, Rate 125 g/ha",0
same,Giant foxtail plant response rating,giant foxtail; [4],0
same,Giant foxtail plant response rating,giant foxtail; [5],0
same,Giant foxtail plant response rating,giant foxtail; [6],0
same,"Plant response rating, Giant foxtail",giant foxtail; [7],0
same,Crabgrass plant response rating,crabgrass; [1],0
same,Crabgrass plant response rating,crabgrass; [2],0
same,Crabgrass plant response rating,crabgrass; [3],0
same,Crabgrass plant response rating (0 to 10 scale),"crabgrass; Preemergence, Rate 125 g/ha",0
same,Crabgrass plant response rating,crabgrass; [4],0
same,Crabgrass plant response rating,crabgrass; [5],0
same,Crabgrass plant response rating,crabgrass; [6],0
same,"Plant response rating, Crabgrass",crabgrass; [7],0
same,Bedstraw plant response rating,bedstraw; [1],0
same,Bedstraw plant response rating,bedstraw; [2],0
same,Bedstraw plant response rating,bedstraw; [3],0
same,Bedstraw plant response rating (0 to 10 scale),"bedstraw; Preemergence, Rate 125 g/ha",0
same,Bedstraw plant response rating,bedstraw; [4],0
same,Bedstraw plant response rating,bedstraw; [5],0
same,Bedstraw plant response rating,bedstraw; [6],0
same,"Plant response rating, Bedstraw",bedstraw; [7],0
